Data as given in patent US20240360148A1 (SUVALENT THERAPEUTICS, INC., priority 2021, published 2024).

How the values were obtained:
[1] = biological target: SAE1 (Homo sapiens (Human), UniProt Q9UBE0+Q9UBT2); test: SAE High Throughput Biochemical Assay (HTRF), 15 min preincubation; details: read-out: 15 min preincubation HTRF IC50 (μM) Ave, SAE1 12.5 nM, ATP 100 μM
In short: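 HTRF detection of SUMO transfer from SUMO-GST to UBC9-His (40 nM each) by SAE1 at 12.5 nM used 100 μM ATP in pH 7.5 HEPES buffer with 10 mM MgCl2 and 0.1% BSA. Enzyme and compound were preincubated 15 min at RT and the reaction ran 45 min, with readings after 2 h and overnight.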

[2] = system: sumoylation levels (SUMO 2/3 conjugates) in HCT-116 cells; test: HCT-116 4 Hour Cell Assay (Western, SUMO 2/3 conjugates); format: cell-based; details: Homo sapiens, HCT-116, 4 h, 4 h treatment, Anti-Sumo 2-3 immunoblot, read-out: HCT-116 Western 4 h IC50 (μM) Ave
In short: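 IC50 derived from fluorescent immunoblot quantification of SUMO 2/3 conjugate bands, normalized to total protein, after non-reducing SDS-PAGE. Lysis used RIPA plus NEM; exposure was 4 h across 11 concentrations, three-fold serial dilution starting at 25 μM.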

Sequence of SAE1 (Q9UBE0 whole entry): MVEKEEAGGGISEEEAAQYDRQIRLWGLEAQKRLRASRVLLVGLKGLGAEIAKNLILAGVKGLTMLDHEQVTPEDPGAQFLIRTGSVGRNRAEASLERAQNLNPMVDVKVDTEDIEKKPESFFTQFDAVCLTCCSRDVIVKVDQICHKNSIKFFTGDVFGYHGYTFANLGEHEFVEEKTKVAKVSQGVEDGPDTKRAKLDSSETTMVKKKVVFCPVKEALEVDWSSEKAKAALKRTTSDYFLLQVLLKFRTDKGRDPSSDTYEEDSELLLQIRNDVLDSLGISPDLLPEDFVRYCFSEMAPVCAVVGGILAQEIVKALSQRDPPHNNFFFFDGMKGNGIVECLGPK
Sequence of SAE1 (Q9UBT2 whole entry): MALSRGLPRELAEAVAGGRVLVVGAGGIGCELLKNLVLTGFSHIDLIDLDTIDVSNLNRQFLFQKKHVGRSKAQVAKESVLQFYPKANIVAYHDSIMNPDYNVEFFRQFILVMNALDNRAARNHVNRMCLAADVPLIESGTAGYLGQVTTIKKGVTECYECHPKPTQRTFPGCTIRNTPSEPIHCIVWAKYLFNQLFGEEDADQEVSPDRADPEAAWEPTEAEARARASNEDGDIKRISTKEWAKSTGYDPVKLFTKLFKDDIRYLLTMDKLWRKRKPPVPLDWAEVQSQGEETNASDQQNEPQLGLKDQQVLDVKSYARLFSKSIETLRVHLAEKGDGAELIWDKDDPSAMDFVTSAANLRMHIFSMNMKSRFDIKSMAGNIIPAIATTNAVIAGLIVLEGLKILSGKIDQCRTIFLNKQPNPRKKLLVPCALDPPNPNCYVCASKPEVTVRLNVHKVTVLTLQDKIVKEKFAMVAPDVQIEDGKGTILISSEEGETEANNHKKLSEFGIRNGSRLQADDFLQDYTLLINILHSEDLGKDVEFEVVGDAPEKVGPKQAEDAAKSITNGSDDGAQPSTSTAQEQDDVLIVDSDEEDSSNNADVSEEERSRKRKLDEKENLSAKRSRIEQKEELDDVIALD

Structure (SMILES) | IC50 [1] | IC50 [2]
CCn1cc(-c2c(F)cccc2[C@@H]2CN(C(=O)/C=C/[C@@H]3C[C@@H]4C[C@@H]4N3)Cc3sc(C#N)cc32)c(C(F)(F)F)n1 [Example 123, (S)-6-((E)-3-((1S,3S,5S)-2-Azabicyclo[3.1.0]hexan-3-yl)acryloyl)-4-(2-(1-ethyl-3-(trifluoromethyl)-1H pyrazol-4-yl)-3-fluorophenyl)-4,5,6,7-tetrahydrothieno[2,3-c]pyridine-2-carbonitrile] | 1.17 µM | 0.178 µM
CCn1cc(-c2ccccc2[C@@H]2CN(C(=O)/C=C/CN)Cc3sc(C#N)cc32)c(C(F)(F)F)n1 [Example 125, (S, E)-6-(4-Aminobut-2-enoyl)-4-(2-(1-ethyl-3-(trifluoromethyl)-1 H-pyrazol-4-yl)phenyl)-4,5,6,7-tetrahydrothieno[2,3-c]pyridine-2-carbonitrile] | 1.23 µM | 0.543 µM
CCn1cc(-c2c(F)cccc2[C@@H]2CN(C(=O)/C=C/CNC(C)(C)C)Cc3sc(C#N)cc32)c(C(F)(F)F)n1 [Example 127, (S, E)-6-(4-(tert-butylamino)but-2-enoyl)-4-(2-(1-ethyl-3-(trifluoromethyl)-1 H pyrazol-4-yl)-3-fluorophenyl)-4,5,6,7-tetrahydrothieno[2,3-c]pyridine-2-carbonitrile] | 1.07 µM | 0.225 µM
Cn1cc(-c2c(F)cccc2[C@@H]2CN(C(=O)/C=C/[C@@H]3CCCN3)Cc3sc(C#N)cc32)c(C(F)(F)F)n1 [Example 128, (S)-4-(3-Fluoro-2-(1-methyl-3-(trifluoromethyl)-1H-pyrazol-4-yl)phenyl)-6-((E)-3-((S)pyrrolidin-2-yl)acryloyl)-4,5,6,7-tetrahydrothieno[2,3-c]pyridine-2-carbonitrile] | 0.75 µM | 0.0658 µM
CNC/C=C/C(=O)N1Cc2sc(C#N)cc2[C@H](c2cccc(F)c2-c2cn(C)nc2C(F)(F)F)C1 [Example 129, (S,E)-4-(3-Fluoro-2-(1-methyl-3-(trifluoromethyl)-1 H pyrazol-4-yl)phenyl)-6-(4-(methylamino)but-2-enoyl)-4,5,6,7-tetrahydrothieno[2,3-c]pyridine-2-carbonitrile] | 0.505 µM | 0.249 µM
CCn1cc(-c2ccccc2[C@@H]2CN(C(=O)C#CCN(C)C)Cc3sc(C#N)cc32)c(C(F)(F)F)n1 [Example 132, (S)-6-(4-(Dimethylamino)but-2-ynoyl)-4-(2-(1-ethyl-3-(trifluoromethyl)-1 H-pyrazol-4-yl)phenyl)-4,5,6,7-tetrahydrothieno[2,3-c]pyridine-2-carbonitrile] | 0.18 µM | 0.547 µM
CCn1cc(-c2ccccc2[C@@H]2CN(C(=O)C#CCN)Cc3sc(C#N)cc32)c(C(F)(F)F)n1 [Example 135, (S)-6-(4-Aminobut-2-ynoyl)-4-(2-(1-ethyl-3-(trifluoromethyl)-1H pyrazol-4-yl)phenyl)-4,5,6,7-tetrahydrothieno[2,3-c]pyridine-2-carbonitrile] | 0.51 µM | 1.2 µM
CCn1cc(-c2ccccc2[C@@H]2CN(C(=O)C#CC3(N)CC3)Cc3sc(C#N)cc32)c(C(F)(F)F)n1 [Example 136, (S)-6-(3-(1-Aminocyclopropyl)propioloyl)-4-(2-(1-ethyl-3-(trifluoromethyl)-1 H-pyrazol-4-yl)phenyl)-4,5,6,7-tetrahydrothieno[2,3-c]pyridine-2-carbonitrile] | 4.13 µM | 2.53 µM
CCn1cc(-c2ccccc2[C@@H]2CN(C(=O)C#CC3(N)CCCC3)Cc3sc(C#N)cc32)c(C(F)(F)F)n1 [Example 138, (S)-6-(3-(1-Aminocyclopentyl)propioloyl)-4-(2-(1-ethyl-3-(trifluoromethyl)-1 H-pyrazol-4-yl)phenyl)-4,5,6,7-tetrahydrothieno[2,3-c]pyridine-2-carbonitrile] | 0.5 µM | 2.69 µM
CCn1cc(-c2ccccc2[C@@H]2CN(C(=O)C#CC3CCCN3)Cc3sc(C#N)cc32)c(C(F)(F)F)n1 (stereo partly drawn) [Example 139, (4S)-4-(2-(1-Ethyl-3-(trifluoromethyl)-1 H pyrazol-4-yl)phenyl)-6-(3-(pyrrolidin-2-yl)propioloyl)-4,5,6,7-tetrahydrothieno[2,3-c]pyridine-2-carbonitrile] | 0.07 µM | 0.97 µM
CCn1cc(-c2ccccc2[C@@H]2CN(C(=O)C#C[C@]3(C)CCCN3)Cc3sc(C#N)cc32)c(C(F)(F)F)n1 [Example 140, (S)-4-(2-(1-Ethyl-3-(trifluoromethyl)-1 H-pyrazol-4-yl)phenyl)-6-(3-((S)-2-methylpyrrolidin-2-yl)propioloyl)-4,5,6,7-tetrahydrothieno[2,3-c]pyridine-2-carbonitrile] | 0.12 µM | 2.36 µM
CCn1cc(-c2ccccc2[C@@H]2CN(C(=O)C#C[C@@]3(C)CCCN3)Cc3sc(C#N)cc32)c(C(F)(F)F)n1 [Example 141, (S)-4-(2-(1-Ethyl-3-(trifluoromethyl)-1 H pyrazol-4-yl)phenyl)-6-(3-((R)-2-methylpyrrolidin-2-yl)propioloyl)-4,5,6,7-tetrahydrothieno[2,3-c]pyridine-2-carbonitrile] | 0.35 µM | 4.88 µM
CCn1cc(-c2ccccc2[C@@H]2CN(C(=O)C#CCOC)Cc3sc(C#N)cc32)c(C(F)(F)F)n1 [Example 144, (S)-4-(2-(1-Ethyl-3-(trifluoromethyl)-1 H pyrazol-4-yl)phenyl)-6-(4-methoxybut-2-ynoyl)-4,5,6,7-tetrahydrothieno[2,3-c]pyridine-2-carbonitrile] | 0.54 µM | 0.792 µM
CCn1cc(-c2ccccc2[C@@H]2CN(C(=O)C#CC3CCNC3)Cc3sc(C#N)cc32)c(C(F)(F)F)n1 (stereo partly drawn) [Example 146, (4S)-4-(2-(1-Ethyl-3-(trifluoromethyl)-1 H pyrazol-4-yl)phenyl)-6-(3-(pyrrolidin-3-yl)propioloyl)-4,5,6,7-tetrahydrothieno[2,3-c]pyridine-2-carbonitrile] | 1.92 µM | 0.501 µM
CCn1cc(-c2ccccc2[C@@H]2CN(C(=O)C#CC3CNC3)Cc3sc(C#N)cc32)c(C(F)(F)F)n1 [Example 147, (S)-6-(3-(Azetidin-3-yl)propioloyl)-4-(2-(1-ethyl-3-(trifluoromethyl)-1 H pyrazol-4-yl)phenyl)-4,5,6,7-tetrahydrothieno[2,3-c]pyridine-2-carbonitrile] | 0.62 µM | 3.47 µM
CN(C)CC#CC(=O)N1Cc2sc(C#N)cc2[C@H](c2ccccc2-c2c[nH]nc2C(F)(F)F)C1 [Example 151, (S)-6-(4-(Dimethylamino)but-2-ynoyl)-4-(2-(3-(trifluoromethyl)-1 H-pyrazol-4-yl)phenyl)-4,5,6,7-tetrahydrothieno[2,3-c]pyridine-2-carbonitrile] | 0.18 µM | 0.587 µM
C#CCn1cc(-c2ccccc2[C@@H]2CN(C(=O)/C=C/CN(C)C)Cc3sc(C#N)cc32)c(C(F)(F)F)n1 [Example 155, (S, E)-6-(4-(Dimethylamino)but-2-enoyl)-4-(2-(1-(prop-2-yn-1-yl)-3-(trifluoromethyl)-1 H-pyrazol-4-yl)phenyl)-4,5,6,7-tetrahydrothieno[2,3-c]pyridine-2-carbonitrile] | 3.52 µM | 0.321 µM
